# From patent US12655101B2, “Small molecules with antibacterial activity” (NEW MEXICO TECH UNIVERSITY RESEARCH PARK CORPORATION, priority 2021, dated 2026)
# Like-named read-outs stand apart in the source and are kept apart here.
# Key:
# Assay type in all cases: cell-based
# A. baumannii ATCC 15151 [1] = experiment: Filamentation with ciprofloxacin and Compound 25 on A. baumannii; details: 18 hours
# Method: A. baumannii ATCC 15151: […] The culture tubes were incubated for 18 hours at 37° C. After 18 hours incubation, took 3 μL of cells from each well and plated on microscope slide to observe the following: […]
# S. aureus = experiment: Evolution of resistance in S. aureus over 32 days; details: Staphylococcus aureus
# Text: Over a period of 32 days, S. aureus cells were exposed to sub-inhibitory concentrations of the indicated compound, norfloxacin, or oxacillin and sub-cultured at the newly emerged, sub-inhibitory concentration.
# [2] = test system: UmuC (error-prone polymerase); experiment: UmuC gene expression by rtPCR in S. aureus; details: sub-inhibitory norfloxacin
# Text: RecA and error-prone polymerase subunit UmuC transcripts were quantitatively measured using rtPCR in S. aureus. S. aureus was challenged with sub-inhibitory concentrations of DNA-damaging norfloxacin.
# [3] = test system: A. baumannii ATCC BAA-1797; experiment: MIC on A. baumannii ATCC BAA-1797; details: Acinetobacter baumannii
# Method: A. baumannii: A. baumannii ATCC BAA-1797 was grown from a glycerol stock by placing a small volume of cells onto a MHA plate. The MHA plate was incubated overnight at 37° C. A single colony was used to inoculate MHB to obtain a bacterial broth suspension. The MHB broth suspension was grown at 37° C. on a rotary shaking incubator (100 rpm) for 12 hours. The bacterial cell concentration was adjusted to ˜5×10^5 CFU/mL in MHB or MHB+10%, 20% or 40% FBS using OD at 595 nm. 500 μL aliquots of the adjusted bacterial cell suspension were placed into borosilicate glass tubes. The cell suspensions were treated with a compound of interest, and the treatments were serially diluted two-fold. The culture tubes were incubated for 18 hours at 37° C. Efficacy was either assessed visually or by adding 10% v/v MTT (5 mg/mL stock) after the 18 hour incubation period. The cell suspensions were subsequently incubated for 10 minutes to allow the MTT reagent to carry out the colorimetric reaction. The OD was read at 595 nm.
# A. baumannii ATCC 15151 [4] = experiment: DNA degradation (agarose gel), drug-sensitive strain; details: 1.5% H2O2, 10 μg/mL ciprofloxacin, 100 μM Compound 25; 3 hours
# E. coli pNMT41 = experiment: 6-chloro-4-methyl-umbelliferyl-β-D-glucuronide assay for beta-glucuronidase (inner membrane disruption); details: 10 μg/mL PME
# Method: E. coli pNMT 41 was grown from a glycerol stock by placing a small volume of cells onto a MHA plate. The MHA plate was incubated overnight at 37° C. A single colony was subsequently used to inoculate MHB+100 μg/mL ampicillin to obtain a bacterial broth suspension. The MHB broth suspension was grown at 37° C. on a rotary shaking incubator (100 rpm) for 12 hours. The bacterial cell concentration was adjusted to ˜1×10^7 CFU/mL in MHB using OD at 595 nm. The cells were washed 3× by spinning by centrifuge and washing with 500 μL medium 200. The cells were resuspended in 7 mL medium 200. The cells were treated with 10 μM melittin, 6, 12, 24, and 100 μM Compound 25, and 10 μg/mL PME. The cells were incubated at 37° C. for 30 minutes. 1 μM umbelliferyl was added, and the cells were incubated further for 10 minutes at 37° C.
# The cells were then incubated at 37° C. for 45 minutes. 1 μM umbelliferyl was added, and the cells were incubated further for 10 minutes at 37° C.
# E. coli pUC18 = experiment: Nitrocefin β-lactamase assay (outer membrane disruption); details: 10 μM melittin; 10 μg/mL PME; 6, 12, 24 μM Compound 25 and 26; 100 μM Compound 27; 50 μM Compound 15; 30 minutes
# Method: E. coli pUC18 was grown from a glycerol stock by placing a small volume of cells onto a MHA plate. The MHA plate was incubated overnight at 37° C. A single colony was subsequently used to inoculate MHB+100 μg/mL ampicillin to obtain a bacterial broth suspension. The MHB broth suspension was grown at 37° C. on a rotary shaking incubator (100 rpm) for 12 hours. The cells were washed 3× by centrifuging and washing with 1 mL medium 200. The washed bacterial cell concentration was adjusted to ˜1×10^7 CFU/mL in medium 200 using OD at 595 nm. The cells were treated cells with 10 μM melittin; 6, 12, 24 μM Compound 25; 6 μM, 12 μM, 24 μM Compound 26; 100 μM Compound 27; 50 μM Compound 15; and 10 μg/mL PME. The cells were incubated at 37° C. for 30 minutes; added 50 μM nitrocefin and incubated 10 minutes at 37° C.
# pUC18 E. coli carry an ampicillin resistance gene and produce β-lactamase.
# [5] = test system: A. baumannii ATCC BAA-1797; experiment: Colony counts of A. baumannii ATCC BAA-1797 treated with 4xMIC for 16 hours; details: 1 μg/mL PME, 1 mM PAO, compounds at 4xMIC
# [6] = 10 μM melittin, 6, 12, 24, 100 μM Compound 25, 30 minutes
compound,measurement,setting,value
"O=C(O)c1cn(C2CC2)c2cc(N3CCNCC3)c(F)cc2c1=O [Ciprofloxacin, reference compound]",cell morphology and growth,A. baumannii ATCC 15151 [1]; 125 ng/mL ciprofloxacin,largely elongated in morphology and growth inhibition was observed
same,cell morphology and growth,A. baumannii ATCC 15151 [1]; single agent: 50 ng/mL ciprofloxacin or […] Compound 25,slightly elongated and some growth inhibition was observed
"COc1ccc(/N=N/c2c(-c3ccc(OC)cc3)[nH]c3ccccc23)cc1 [Compound 46, (E)-2-(4-methoxyphenyl)-3-((4-methoxyphenyl)diazenyl)-1H-indole]",MIC,"S. aureus; 0 h, read-out: Initial MIC Day 0",1 to 2 µM
same,MIC,S. aureus; read-out: Final MIC Day 32,1 to 2 µM
same,UmuC (error-prone polymerase) gene expression,[2],transcriptional inhibition
same,MIC,"[3]; ATCCBAA1797, 18 h, read-out: MIC in the presence of 40% FBS, A. baumannii ATCC BAA-1797, 40% FBS",> 100 µM
same,MIC,"[3]; ATCCBAA1797, A. baumannii ATCC BAA-1797, absence of serum, read-out: MIC in the absence of serum",> 100 µM
"OO [Compound H2O2, hydrogen peroxide, reference compound]",DNA degradation,A. baumannii ATCC 15151 [4],degraded DNA completely
"CC[C@H](C)[C@H](NC(=O)CN)C(=O)NCC(=O)N[C@@H](C)C(=O)N[C@H](C(=O)N[C@@H](CC(C)C)C(=O)N[C@@H](CCCCN)C(=O)N[C@H](C(=O)N[C@@H](CC(C)C)C(=O)N[C@H](C(=O)N[C@H](C(=O)NCC(=O)N[C@@H](CC(C)C)C(=O)N1CCC[C@H]1C(=O)N[C@@H](C)C(=O)N[C@@H](CC(C)C)C(=O)N[C@H](C(=O)N[C@@H](CO)C(=O)N[C@@H](Cc1c[nH]c2ccccc12)C(=O)N[C@H](C(=O)N[C@@H](CCCCN)C(=O)N[C@@H](CCCNC(=N)N)C(=O)N[C@@H](CCCCN)C(=O)N[C@@H](CCCNC(=N)N)C(=O)N[C@@H](CCC(N)=O)C(=O)N[C@@H](CCC(N)=O)C(N)=O)[C@@H](C)CC)[C@@H](C)CC)[C@@H](C)O)[C@@H](C)O)C(C)C)C(C)C [Melittin, melittin]",inner membrane disruption (GUS fluorescence),E. coli pNMT41; [6],disrupt inner membrane
same,"outer membrane disruption (β-lactamase leakage, nitrocefin colour)",E. coli pUC18,high concentration of β-lactamase in the supernatant
polymyxin E [PME],cell viability after 16 hours of treatment,[5],cells were still viable
same,inner membrane disruption (GUS fluorescence),E. coli pNMT41; [6],disrupt inner membrane
same,inner membrane disruption (GUS fluorescence),"E. coli pNMT41; separate experiment, 12.5 μM Compound 14, 45 minutes",disrupts inner membrane
same,"outer membrane disruption (β-lactamase leakage, nitrocefin colour)",E. coli pUC18,high concentration of β-lactamase in the supernatant
